Results published in US20100331315A1, “RHODANINES AND RELATED HETEROCYCLES AS KINASE INHIBITORS” (priority 2009, published 2010).

Tests used:
[1] = target: recombinant PIM-1 (Homo sapiens, UniProt P11309); assay: PIM-1 assay (33P-ATP filter plate); type: biochemical; conditions: Table 1; read-out: PIM1: IC50
Experimental: The following procedure was used to assay the PIM-1 kinase activity of compounds of the invention. Other methods for assaying PIM-1 and other PIM kinases, as well as methods to assay for activity against the various kinases are known in the art.
In a final reaction volume of 50 ul, recombinant PIM-1 (1 ng) was incubated with 12 mM MOPS pH 7.0, 0.4 mM EDTA, glycerol 1%, brij 35 0.002%, 2-mercaptoethanol 0.02%, BSA 0.2 mg/ml, 100 uM KKRNRTLTK, 10 mM MgAcetate, 15 uM ATP, [γ-^33P-ATP] (specific activity approx. 500 cpm/pmol), DMSO 4% and test inhibitor compound at the required concentration. The reaction was initiated by the addition of the Magnesium ATP mixture. After 40 min incubation at 23° C., the reactions were quenched by the addition of 100 ul 0.75% Phosphoric acid, and the labeled peptide collected by filtration through a phosphocellulose filter plate. The plate was washed 4 times with 0.075% phosphoric acid (100 ul per well) and then, after the addition of scintillation fluid (20 ul per well), the counts were measured by a scintillation counter.

[2] = tested on: MDAMB231; assay: Alamar Blue cell proliferation assay, MDAMB231; type: cell-based; conditions: Homo sapiens, MDA-MB-231, MDAMB231, Table 1, read-out: AB: MDAMB231 IC50
Experimental: (§1) A representative cell-proliferation assay protocol using Alamar Blue dye (stored at 4° C., use 20 ul per well) is described hereafter.
(§2) a. Split and trypsinize cells.
(§3) b. Count cells using hemocytometer.
(§4) c. Plate 4,000-5,000 cells per well in 100 μl of medium and seed into a 96-well plate according to the following plate layout. Add cell culture medium only to wells B10 to B12. Wells B1 to B9 have cells but no compound added.
(§5) d. Add 100 μl of 2× drug dilution to each well in a concentration shown in the plate layout above. At the same time, add 100 μl of media into the control wells (wells B10 to B12). Total volume is 200 μl/well.
(§6) e. Incubate four (4) days at 37° C., 5% CO2 in a humidified incubator.
(§7) f. Add 20 μl Alamar Blue reagent to each well.
(§8) g. Incubate for four (4) hours at 37° C., 5% CO2 in a humidified incubator.
(§9) h. Record fluorescence at an excitation wavelength of 544 nm and emission wavelength of 590 nm using a microplate reader.
(§10) In the assays, cells are cultured with a test compound for approximately four days, the dye is then added to the cells and fluorescence of […] dye is detected after approximately four hours. Different types of cells can be utilized in the assays (e.g., HCT-116 human colorectal carcinoma cells, PC-3 human prostatic cancer cells and MiaPaca human pancreatic carcinoma cells).

[3] = target: T1, recombinant human CK2 (Homo sapiens, UniProt P68400); assay: CK2 assay (cell-free, 33P-ATP filter plate); type: biochemical; conditions: Table 1
T1 construct: purchased Upstate
Experimental: Modulatory activity of compounds described herein was assessed in vitro in cell-free CK2 assays by the following method.
Test compounds in aqueous solution were added at a volume of 10 microliters, to a reaction mixture comprising 10 microliters Assay Dilution Buffer (ADB; 20 mM MOPS, pH 7.2, 25 mM beta-glycerolphosphate, 5 mM EGTA, 1 mM sodium orthovanadate and 1 mM dithiothreitol), 10 microliters of substrate peptide (RRRDDDSDDD, dissolved in ADB at a concentration of 1 mM), 10 microliters of recombinant human CK2 (25 ng dissolved in ADB; Upstate). Reactions were initiated by the addition of 10 microliters of ATP Solution (90% 75 mM MgCl2, 75 micromolar ATP dissolved in ADB; 10% [γ-^33P]ATP (stock 1 mCi/100 μl; 3000 Ci/mmol (Perkin Elmer) and maintained for 10 minutes at 30 degrees C. The reactions were quenched with 100 microliters of 0.75% phosphoric acid, then transferred to and filtered through a phosphocellulose filter plate (Millipore). After washing each well 5 times with 0.75% phosphoric acid, the plate was dried under vacuum for 5 min and, following the addition of 15 ul of scintillation fluid to each well, the residual radioactivity was measured using a Wallac luminescence counter.

[4] = tested on: K-562; assay: Alamar Blue cell proliferation assay, K-562; type: cell-based; conditions: Homo sapiens, K562, K-562, Table 1, read-out: AB: K-562 IC50
Experimental: as §1, §2, §3, §4, §5, §6, §7, §8, §9, §10

[5] = tested on: MV-4-11; assay: Alamar Blue cell proliferation assay, MV-4-11; type: cell-based; conditions: Homo sapiens, MV4-11, MV-4-11, Table 1, read-out: AB: MV-4-11 IC50
Experimental: as §1, §2, §3, §4, §5, §6, §7, §8, §9, §10

[6] = tested on: PC-3 human prostatic cancer cells; assay: Alamar Blue cell proliferation assay, PC3; type: cell-based; conditions: PC-3, PC3, Table 1, read-out: AB: PC3
Experimental: as §1, §2, §3, §4, §5, §6, §7, §8, §9, §10

[7] = tested on: MiaPaca human pancreatic carcinoma cells; assay: Alamar Blue cell proliferation assay, MiaPaCa; type: cell-based; conditions: MIA PaCa-2, Table 1, read-out: AB: MiaPaCa IC50
Experimental: as §1, §2, §3, §4, §5, §6, §7, §8, §9, §10

Chain of recombinant PIM-1 (P11309 whole entry): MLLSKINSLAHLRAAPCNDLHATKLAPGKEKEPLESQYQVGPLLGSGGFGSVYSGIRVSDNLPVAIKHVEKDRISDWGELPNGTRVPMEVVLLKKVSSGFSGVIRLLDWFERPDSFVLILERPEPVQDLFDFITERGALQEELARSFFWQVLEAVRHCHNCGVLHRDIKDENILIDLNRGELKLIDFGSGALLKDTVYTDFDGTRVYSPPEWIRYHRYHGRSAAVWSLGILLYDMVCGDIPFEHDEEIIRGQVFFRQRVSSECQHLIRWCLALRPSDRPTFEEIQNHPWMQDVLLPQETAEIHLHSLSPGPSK
T1 sequence (P68400 whole entry): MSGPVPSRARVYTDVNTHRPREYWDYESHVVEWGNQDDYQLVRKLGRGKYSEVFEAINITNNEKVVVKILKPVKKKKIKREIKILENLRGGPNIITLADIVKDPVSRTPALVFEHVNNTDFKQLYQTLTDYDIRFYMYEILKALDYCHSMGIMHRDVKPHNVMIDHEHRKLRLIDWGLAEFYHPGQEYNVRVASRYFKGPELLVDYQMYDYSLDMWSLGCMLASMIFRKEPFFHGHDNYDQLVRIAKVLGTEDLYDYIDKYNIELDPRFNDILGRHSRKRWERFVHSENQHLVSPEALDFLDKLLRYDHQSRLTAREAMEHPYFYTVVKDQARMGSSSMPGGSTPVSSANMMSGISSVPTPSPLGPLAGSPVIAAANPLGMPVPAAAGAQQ
T1 sequence (P67870 whole entry partner): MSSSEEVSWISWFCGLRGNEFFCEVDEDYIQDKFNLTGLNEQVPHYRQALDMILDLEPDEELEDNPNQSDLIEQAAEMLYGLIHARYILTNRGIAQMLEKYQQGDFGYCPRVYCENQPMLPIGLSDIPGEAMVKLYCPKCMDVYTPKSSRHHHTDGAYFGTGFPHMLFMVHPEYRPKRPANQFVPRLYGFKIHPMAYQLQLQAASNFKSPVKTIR

Structure (SMILES)	IC50 [1]	IC50 [2]	IC50 [3]	IC50 [4]	IC50 [5]	IC50 [6]	IC50 [7]
NCCN1CCN(C(=O)c2ccc(-c3ccc(/C=C4\SC(=S)NC4=O)o3)cc2)CC1	0.019 µM	> 10 µM	0.196 µM	> 10 µM	> 1 µM	> 30 µM	> 10 µM
CCN(CC)CCNC(=O)c1ccc(-c2ccc(/C=C3\SC(=S)NC3=O)o2)cc1	0.006 µM	> 10 µM	0.131 µM	> 10 µM	> 10 µM	> 30 µM	> 10 µM
Cc1nccn1CCNC(=O)c1ccc(-c2ccc(/C=C3\SC(=S)NC3=O)o2)cc1	0.014 µM	> 10 µM	0.226 µM	> 10 µM	> 10 µM	> 30 µM	> 10 µM
Cn1cncc1CNC(=O)c1ccc(-c2ccc(/C=C3\SC(=S)NC3=O)o2)cc1	0.035 µM	> 10 µM	0.108 µM	> 10 µM	> 10 µM	> 30 µM	> 10 µM
CN1CCCCC1CNC(=O)c1ccc(-c2ccc(/C=C3\SC(=S)NC3=O)o2)cc1 (centres unmarked)	0.037 µM	> 10 µM	0.471 µM	> 10 µM	> 10 µM	> 30 µM	> 10 µM
O=C1NC(=S)S/C1=C\c1ccc(-c2ccc(C(=O)NCc3ccccn3)cc2)o1	0.286 µM	> 10 µM	0.04 µM	> 10 µM	8.83 µM	> 30 µM	> 10 µM
O=C1NC(=S)S/C1=C\c1ccc(-c2cccc(C(=O)N3CCCNCC3)c2)o1	0.009 µM	> 10 µM	0.412 µM	> 10 µM	> 10 µM	> 30 µM	> 10 µM
CC(=O)NC1CCN(C(=O)c2cccc(-c3ccc(/C=C4\SC(=S)NC4=O)o3)c2)C1 (centres unmarked)	0.038 µM	> 10 µM	0.444 µM	> 10 µM	> 10 µM	> 30 µM	> 10 µM
O=C1NC(=S)S/C1=C\c1ccc(-c2cccc(C(=O)N3CC[C@H](F)C3)c2)o1	0.013 µM	> 10 µM	0.012 µM	> 10 µM	9.5 µM	> 30 µM	> 10 µM
O=C1NC(=S)S/C1=C\c1ccc(-c2cccc(C(=O)N3CC[C@@H](F)C3)c2)o1	0.04 µM	> 10 µM	0.026 µM	> 10 µM	> 10 µM	> 30 µM	> 10 µM
CCNC(=O)c1cccc(-c2ccc(/C=C3\SC(=S)NC3=O)o2)c1	0.028 µM	> 10 µM	0.264 µM	> 10 µM	> 10 µM	> 30 µM	> 10 µM
COCCNC(=O)c1cccc(-c2ccc(/C=C3\SC(=S)NC3=O)o2)c1	0.031 µM	> 10 µM	0.123 µM	> 10 µM	> 10 µM	> 30 µM	> 10 µM
O=C1NC(=S)S/C1=C\c1ccc(-c2cccc(C(=O)N3CCC[C@H]3CO)c2)o1	0.012 µM	> 10 µM	0.037 µM	> 10 µM	0.175 µM	> 30 µM	> 10 µM
O=C1NC(=S)S/C1=C\c1ccc(-c2cccc(C(=O)NNc3ccnc4cc(Cl)ccc34)c2)o1	0.146 µM	> 10 µM	0.266 µM	> 10 µM	> 10 µM	> 30 µM	> 10 µM
CN(C)NC(=O)c1cccc(-c2ccc(/C=C3\SC(=S)NC3=O)o2)c1	0.036 µM	> 10 µM	0.094 µM	> 10 µM	> 10 µM	> 30 µM	> 10 µM
O=C1NC(=S)S/C1=C\c1ccc(-c2cccc(C(=O)NN3CCCCC3)c2)o1	0.086 µM	> 10 µM	0.551 µM	> 10 µM	> 10 µM	> 30 µM	> 10 µM
O=C1NC(=S)S/C1=C\c1ccc(-c2cccc(C(=O)NN3CCN(CCO)CC3)c2)o1	0.162 µM	> 10 µM	0.288 µM	> 10 µM	> 10 µM	> 30 µM	> 10 µM
O=C1NC(=S)S/C1=C\c1ccc(-c2cc(C(=O)O)ccc2Cl)o1	0.199 µM	> 10 µM	0.027 µM	> 10 µM	> 10 µM	> 30 µM	> 10 µM
NC(=O)c1cccc(-c2ccc(/C=C3\SC(=S)NC3=O)o2)c1	0.004 µM	> 10 µM	0.004 µM	> 10 µM	> 10 µM	> 10 µM	> 10 µM
O=C1NC(=S)S/C1=C\c1ccc(-c2ccccc2)o1	0.059 µM	> 10 µM	0.004 µM	> 10 µM	> 10 µM	> 10 µM	> 10 µM
